Key:
[1] = biological target: T1, Bromodomain-containing protein 4 (Homo sapiens, UniProt O60885); assay: Binding affinity to BRD4 BD1 (unknown origin) expressed in Escherichia coli BL21 (DE3) at 1:1 protein:compound ratio by MST assay
[2] = biological target: T1, Bromodomain-containing protein 4; assay: Binding affinity to BRD4 BD2 (unknown origin) expressed in Escherichia coli BL21 (DE3) at 1:1 protein:compound ratio by MST assay
[3] = Selectivity ratio of Kd for binding affinity to BRD4 BD2 (unknown origin) by MST assay to Kd for binding affinity to BRD4 BD1 (unknown origin) by MST assay

SMILES	Kd [1]	Kd [2]	Selectivity ratio [3]
Cc1nn(CC2CCC2)c(C)c1-c1cncc(-c2ccnc3nc[nH]c23)c1	0.25 µM	13 µM	51
CCn1nc(C)c(-c2cncc(-c3ccnc4nc[nH]c34)c2)c1C	0.48 µM	16 µM	34
Cc1nn(CC2CCCC2)c(C)c1-c1cncc(-c2ccnc3nc[nH]c23)c1	0.99 µM	13 µM	13
Cc1c(-c2cnccc2-c2ccnc3nc[nH]c23)cnn1C	2.4 µM	178 µM	73

Continued, values first:

Kd [1]	Kd [2]	Selectivity ratio [3]	SMILES
0.66 µM	28 µM	42	Cc1nn(C)cc1-c1cncc(-c2ccnc3nc[nH]c23)c1
0.33 µM	11 µM	35	Cn1cc(-c2cncc(-c3ccnc4nc[nH]c34)c2)c(C(F)(F)F)n1

Reference: ChEMBL document CHEMBL5528022, “Discovery of a brain-permeable bromodomain and extra terminal domain (BET) inhibitor with selectivity for BD1 for the treatment of multiple sclerosis” (Eur J Med Chem, 2024)
